{
  "source": "patent US20090247646A1",
  "about": "“USE OF RESVERATROL AND DERIVATIVES THEREOF FOR PROMOTING THE WELLNESS STATE IN MAMMALS” (priority 2006, published 2009)",
  "tested_on": "gene expression in heart tissue",
  "assay": "Genome-wide gene expression in heart tissue of old mice fed a resveratrol-supplemented diet (Affymetrix Mouse Genome 430 2.0 array)",
  "type": "in vivo",
  "key": {"[1]": {"details": "ADP-ribosyltransferase 1, Genebank ID NM_009710"}, "[2]": {"details": "Bcl2-associated athanogene 3, Genebank ID NM_013863"}, "[3]": {"details": "DnaJ (Hsp40) homolog, subfamily A, member 3, Genebank ID AK004575"}, "[4]": {"details": "DnaJ (Hsp40) homolog, subfamily A, member 4, Genebank ID NM_021422"}, "[5]": {"details": "DnaJ (Hsp40) homolog, subfamily B, member 5, Genebank ID AI664344"}, "[6]": {"details": "DnaJ (Hsp40) homolog, subfamily B, member 10, Genebank ID NM_020266"}, "[7]": {"details": "F-box only protein 25, Genebank ID NM_025785"}, "[8]": {"details": "F-box only protein 32, Genebank ID AF441120"}, "[9]": {"details": "F-box protein 30, Genebank ID AK006369"}, "[10]": {"details": "FK506 binding protein 7, Genebank ID NM_010222"}, "[11]": {"details": "G protein-coupled receptor kinase 5, Genebank ID BC019379"}, "[12]": {"details": "Hbs1-like (S. cerevisiae), Genebank ID AK012856"}, "[13]": {"details": "Mus musculus similar to heart alpha-kinase (LOC381181), mRNA, Genebank ID AY044451"}, "[14]": {"details": "Mus musculus transcribed sequences, Genebank ID AK004331"}, "[15]": {"details": "No description found, Genebank ID BG976607"}, "[16]": {"details": "O-linked N-acetylglucosamine (GlcNAc) transferase (UDP-N-acetylglucosamine:polypeptide-N-acetylglucosaminyl transferase), Genebank ID BG065325"}, "[17]": {"details": "PTEN induced putative kinase 1, Genebank ID AF316872"}, "[18]": {"details": "Stam binding protein, Genebank ID AK019907"}, "[19]": {"details": "acid phosphatase 1, soluble, Genebank ID AW554436"}},
  "data": [
    {"smiles": "Oc1ccc(/C=C/c2cc(O)cc(O)c2)cc1", "note": "[resveratrol, 3,4′,5-Trihydroxy-trans-stilbene]", "values": [
      {"measurement": "Effect of resveratrol on changeing gene expression from old to young profile", "setting": "1448825_at pyruvate dehydrogenase kinase, isoenzyme 2", "value": ">100", "unit": "%"},
      {"measurement": "Effect of resveratrol on changeing gene expression from old to young profile", "setting": "1448938_at replication protein A3", "value": ">100", "unit": "%"},
      {"measurement": "Effect of resveratrol on changeing gene expression from old to young profile", "setting": "1449116_a_at deoxythymidylate kinase", "value": ">100", "unit": "%"},
      {"measurement": "Effect of resveratrol on changeing gene expression from old to young profile", "setting": "1449334_at tissue inhibitor of metalloproteinase 3", "value": ">100", "unit": "%"},
      {"measurement": "Effect of resveratrol on changeing gene expression from old to young profile", "setting": "1450008_a_at catenin beta", "value": ">100", "unit": "%"},
      {"measurement": "Effect of resveratrol on changeing gene expression from old to young profile", "setting": "1450048_a_at vacuolar protein sorting 33B (yeast) [BLAST]", "value": ">100", "unit": "%"},
      {"measurement": "Effect of resveratrol on changeing gene expression from old to young profile", "setting": "1450634_at ATPase, H+ transporting, V1 subunit A, isoform 1", "value": ">100", "unit": "%"},
      {"measurement": "Effect of resveratrol on changeing gene expression from old to young profile", "setting": "1450720_at acid phosphatase 1, soluble", "value": ">100", "unit": "%"},
      {"measurement": "Effect of resveratrol on changeing gene expression from old to young profile", "setting": "1450899_at neural precursor cell expressed, developmentally down-regulated gene 1", "value": ">100", "unit": "%"},
      {"measurement": "Effect of resveratrol on changeing gene expression from old to young profile", "setting": "1451012_a_at cold shock domain protein A", "value": ">100", "unit": "%"},
      {"measurement": "Effect of resveratrol on changeing gene expression from old to young profile", "setting": "1451148_at PTEN induced putative kinase 1", "value": ">100", "unit": "%"},
      {"measurement": "Effect of resveratrol on changeing gene expression from old to young profile", "setting": "1451249_at DNA segment, Chr 8, ERATO Doi 812, expressed", "value": ">100", "unit": "%"},
      {"measurement": "Effect of resveratrol on changeing gene expression from old to young profile", "setting": "1452066_a_at Nedd4 family interacting protein 2", "value": ">100", "unit": "%"},
      {"measurement": "Effect of resveratrol on changeing gene expression from old to young profile", "setting": "1452767_at ribosome binding protein 1", "value": ">100", "unit": "%"},
      {"measurement": "Effect of resveratrol on changeing gene expression from old to young profile", "setting": "1452843_at interleukin 6 signal transducer", "value": ">100", "unit": "%"},
      {"measurement": "Effect of resveratrol on changeing gene expression from old to young profile", "setting": "1453124_at transportin 3", "value": ">100", "unit": "%"},
      {"measurement": "Effect of resveratrol on changeing gene expression from old to young profile", "setting": "1453129_a_at regulator of G-protein signaling 12", "value": ">100", "unit": "%"},
      {"measurement": "Effect of resveratrol on changeing gene expression from old to young profile", "setting": "1454811_a_at tumor differentially expressed 2", "value": ">100", "unit": "%"},
      {"measurement": "Effect of resveratrol on changeing gene expression from old to young profile", "setting": "1454837_at ceroid-lipofuscinosis, neuronal 6", "value": ">100", "unit": "%"},
      {"measurement": "Effect of resveratrol on changeing gene expression from old to young profile", "setting": "1454848_at protein phosphatase 1, regulatory (inhibitor) subunit 12C [BLAST]", "value": ">100", "unit": "%"},
      {"measurement": "Effect of resveratrol on changeing gene expression from old to young profile", "setting": "1454974_at syntaxin 8", "value": ">100", "unit": "%"},
      {"measurement": "Effect of resveratrol on changeing gene expression from old to young profile", "setting": "1455182_at kinesin family member 1B", "value": ">100", "unit": "%"},
      {"measurement": "Effect of resveratrol on changeing gene expression from old to young profile", "setting": "1455506_at Mus musculus transcribed sequences", "value": ">100", "unit": "%"},
      {"measurement": "Effect of resveratrol on changeing gene expression from old to young profile", "setting": "1455702_at WD repeat domain 22", "value": ">100", "unit": "%"},
      {"measurement": "Effect of resveratrol on changeing gene expression from old to young profile", "setting": "1460028_at Mus musculus transcribed sequences", "value": ">100", "unit": "%"},
      {"measurement": "Effect of resveratrol on changeing gene expression from old to young profile", "setting": "1460174_at dexamethasone-induced transcript", "value": ">100", "unit": "%"},
      {"measurement": "Effect of resveratrol on changeing gene expression from old to young profile", "setting": "1460199_a_at platelet-activating factor acetylhydrolase, isoform 1b, beta1 subunit", "value": ">100", "unit": "%"},
      {"measurement": "% of res effect", "setting": "[1]", "value": 108.0103, "unit": "%"},
      {"measurement": "Median RES", "setting": "[1]", "value": 87939},
      {"measurement": "% of res effect", "setting": "[2]", "value": 131.9726, "unit": "%"},
      {"measurement": "Median RES", "setting": "[2]", "value": 67398},
      {"measurement": "% of res effect", "setting": "[3]", "value": 67.85, "unit": "%"},
      {"measurement": "Median RES", "setting": "[3]", "value": 30553},
      {"measurement": "% of res effect", "setting": "[4]", "value": 61.28, "unit": "%"},
      {"measurement": "Median RES", "setting": "[4]", "value": 20850},
      {"measurement": "% of res effect", "setting": "[5]", "value": 157.0689, "unit": "%"},
      {"measurement": "Median RES", "setting": "[5]", "value": 17969},
      {"measurement": "% of res effect", "setting": "[6]", "value": 124.1691, "unit": "%"},
      {"measurement": "Median RES", "setting": "[6]", "value": 29661},
      {"measurement": "number of genes changed by resveratrol", "setting": "Effect 60-70%", "value": 39},
      {"measurement": "number of genes changed by resveratrol", "setting": "Effect 70-80%", "value": 48},
      {"measurement": "number of genes changed by resveratrol", "setting": "Effect 80-90%", "value": 52},
      {"measurement": "number of genes changed by resveratrol", "setting": "Effect 90-100%", "value": 62},
      {"measurement": "number of genes changed by resveratrol", "setting": "Effect <60%", "value": 44},
      {"measurement": "number of genes changed by resveratrol", "setting": "Effect >100% (expression in resveratrol-fed old mice as percentage of untreated young mice)", "value": 340},
      {"measurement": "% of res effect", "setting": "[7]", "value": 80.27, "unit": "%"},
      {"measurement": "Median RES", "setting": "[7]", "value": 11530},
      {"measurement": "% of res effect", "setting": "[8]", "value": 104.0857, "unit": "%"},
      {"measurement": "Median RES", "setting": "[8]", "value": 35761},
      {"measurement": "% of res effect", "setting": "[9]", "value": 58.67, "unit": "%"},
      {"measurement": "Median RES", "setting": "[9]", "value": 6641},
      {"measurement": "% of res effect", "setting": "[10]", "value": 196.8163, "unit": "%"},
      {"measurement": "Median RES", "setting": "[10]", "value": 33928},
      {"measurement": "% of res effect", "setting": "[11]", "value": 80.42, "unit": "%"},
      {"measurement": "Median RES", "setting": "[11]", "value": 37493},
      {"measurement": "% of res effect", "setting": "[12]", "value": 74.36, "unit": "%"},
      {"measurement": "Median RES", "setting": "[12]", "value": 9115},
      {"measurement": "% of res effect", "setting": "[13]", "value": 190.8585, "unit": "%"},
      {"measurement": "Median RES", "setting": "[13]", "value": 21847},
      {"measurement": "% of res effect", "setting": "[14]", "value": 105.9, "unit": "%"},
      {"measurement": "Median RES", "setting": "[14]", "value": 38260},
      {"measurement": "% of res effect", "setting": "[15]", "value": 69.74, "unit": "%"},
      {"measurement": "Median RES", "setting": "[15]", "value": 9370},
      {"measurement": "% of res effect", "setting": "[16]", "value": 125.3946, "unit": "%"},
      {"measurement": "Median RES", "setting": "[16]", "value": 2989},
      {"measurement": "% of res effect", "setting": "[17]", "value": 147.4853, "unit": "%"},
      {"measurement": "Median RES", "setting": "[17]", "value": 116921},
      {"measurement": "% of res effect", "setting": "[18]", "value": 230.3846, "unit": "%"},
      {"measurement": "Median RES", "setting": "[18]", "value": 13590},
      {"measurement": "number of genes changed by resveratrol", "setting": "Sum", "value": 585},
      {"measurement": "% of res effect", "setting": "[19]", "value": 349.7466, "unit": "%"},
      {"measurement": "Median RES", "setting": "[19]", "value": 34652},
      {"measurement": "number of genes that resembled or exceeded the expression level of the young group", "setting": "among genes changed by resveratrol treatment, heart", "value": 342}
    ]}
  ]
}
